According to patent US8961930B2, “Isatin derivatives for use as in vivo imaging agents” (Imperial Innovations Limited, priority 2008, dated 2015):

Columns and labels:
caspase 8 = target: T1, caspase 8 (Homo sapiens, UniProt Q14790); assay: Fluorimetric in vitro caspase inhibition assay (7-AMC), caspase 8; type: biochemical; details: recombinant human caspase 8, 10 μM Ac-IETD-AMC; read-out: Caspase EC50 (nM), 1/6/8: caspase 8
T1 construct: purchased Biomol International, UK
Method: (§1) Recombinant human caspases-1, -3, -6, -7, and -8 and their peptide-specific substrates were purchased from Biomol International, UK Inhibition of the recombinant caspases by non-radioactive isatins was assessed using a fluorometric assay that measures the accumulation of a fluorogenic product, 7-amino-4-methylcoumarin (7-AMC). All assays were performed in 96-well plates at a volume of 200 μl per well. The assays were performed at 37° C. in an appropriate reaction buffer as described below for each caspase. For caspase 1, the buffer comprised of 0.1% CHAPS, 100 mM NaCl, 5 mM 2-mercaptoethanol, 100 mM HEPES (pH 7.4), 2 mM EDTA, 10% sucrose, and 10 μM of the peptide substrate Ac-YVAD-AMC. For caspase 3: 20 mM HEPES (pH 7.4), 10% sucrose, 100 mM NaCl, 0.1% CHAPS, 2 m, mM EDTA, and 10 μM Ac-DEVD-AMC. For caspase 6: 20 mM HEPES (pH 7.4), 10% sucrose, 100 mM NaCl, 0.1% CHAPS, 2 mM EDTA, and 10 μM Ac-VEID-AMC. For caspase 7: 20 mM HEPES (pH 7.4), 10% sucrose, 5 mM 2-mercaptoethanol, 100 mM NaCl, 0.1% CHAPS, 2 mM EDTA, 10 μM Ac-DEVD-AMC. For caspase 8: 20 mM HEPES (pH 7.4), 10% sucrose, 100 mM NaCl, 0.1% CHAPS, 2 mM EDTA, and 10 μM Ac-IETD-AMC. The Buffers contained non-radioactive isatins in DMSO at a final concentration of 500, 50, 5 μM; 500, 50, 5 nM; 500, 50, 5 pM; the final concentration of DMSO in all wells was 5% of the total volume. Recombinant caspases were used at 0.5 units per assay (˜500 pmol substrate converted per h). All reagents except the peptide substrate were pre-incubated for 10 min. The peptide substrate (final concentration 10 μM) was then added and the plate was incubated for a further 30 min; 30 min was selected after initial linearity study where reaction was assessed after 10, 30, 60 or 90 min. The 30 min time point was selected. Respective control wells contained all reaction components without enzyme. The amount of 7-AMC produced was measured on a fluorescence microplate reader (Victor2; Perkin-Elmer Life sciences) at excitation and emission wavelengths of 355 nm and 460 nm, respectively. The concentration of isatin that inhibits the caspase activity by 50% (EC50) was estimated by non-linear regression analysis using GraphPad Prism (Version 4.0 for Windows, GraphPad Software, San Diego Calif. USA). All the isatins were analyzed in duplicate; the assays were repeated once. Known compounds 13-16 were included as reference compounds.
(§2) The data are the average for two runs, each of which was duplicated, at nine concentrations ranging from 5 pM to 500 μM; the drug concentration required to inhibit each enzyme by 50% (EC50) was obtained from nonlinear regression analysis of the inhibition profiles.

caspase 6 = target: T2, caspase 6 (Homo sapiens, UniProt P55212); assay: Fluorimetric in vitro caspase inhibition assay (7-AMC), caspase 6; type: biochemical; details: recombinant human caspase 6, 10 μM Ac-VEID-AMC; read-out: Caspase EC50 (nM), 1/6/8: caspase 6
T2 construct: purchased Biomol International, UK
T2 sequence (P55212 24-179 limits assumed): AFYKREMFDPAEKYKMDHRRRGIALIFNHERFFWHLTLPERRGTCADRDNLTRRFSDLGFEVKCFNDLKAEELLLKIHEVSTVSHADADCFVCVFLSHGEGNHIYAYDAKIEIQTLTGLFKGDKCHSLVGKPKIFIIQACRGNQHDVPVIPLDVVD
T2 sequence (P55212 194-293 limits assumed): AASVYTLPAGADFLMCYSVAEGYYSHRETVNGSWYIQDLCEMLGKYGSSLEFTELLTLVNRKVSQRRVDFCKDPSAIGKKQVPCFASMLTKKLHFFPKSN
Method: as §1, §2

caspase 7 = target: T3, caspase 7 (Homo sapiens, UniProt P55210); assay: Fluorimetric in vitro caspase inhibition assay (7-AMC), caspase 7; type: biochemical; details: recombinant human caspase 7, 10 μM Ac-DEVD-AMC
T3 construct: purchased Biomol International, UK
T3 sequence (P55210 24-198 limits assumed): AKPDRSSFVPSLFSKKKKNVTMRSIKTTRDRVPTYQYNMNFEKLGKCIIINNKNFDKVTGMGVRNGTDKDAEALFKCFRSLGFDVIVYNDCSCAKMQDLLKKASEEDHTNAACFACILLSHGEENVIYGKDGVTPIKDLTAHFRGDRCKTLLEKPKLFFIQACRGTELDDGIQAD
T3 sequence (P55210 207-303 limits assumed): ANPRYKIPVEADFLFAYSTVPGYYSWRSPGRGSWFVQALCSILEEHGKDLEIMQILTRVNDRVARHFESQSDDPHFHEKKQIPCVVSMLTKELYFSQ
Method: as §1, §2

caspase 1 = target: T4, caspase 1 (Homo sapiens, UniProt P29466); assay: Fluorimetric in vitro caspase inhibition assay (7-AMC), caspase 1; type: biochemical; details: recombinant human caspase 1, 10 μM Ac-YVAD-AMC; read-out: Caspase EC50 (nM), 1/6/8: caspase 1
T4 construct: purchased Biomol International, UK
T4 sequence (P29466 120-297 limits assumed): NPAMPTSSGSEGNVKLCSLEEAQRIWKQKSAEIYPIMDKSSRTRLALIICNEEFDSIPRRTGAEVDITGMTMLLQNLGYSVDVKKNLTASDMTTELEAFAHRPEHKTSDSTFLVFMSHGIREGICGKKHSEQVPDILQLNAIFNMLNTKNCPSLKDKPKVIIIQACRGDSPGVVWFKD
T4 sequence (P29466 317-404 limits assumed): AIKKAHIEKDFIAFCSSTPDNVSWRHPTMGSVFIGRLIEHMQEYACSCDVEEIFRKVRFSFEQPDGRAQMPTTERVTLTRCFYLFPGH
Method: as §1, §2

[1] = In vivo biodistribution studies (Example 5); set-up: species or system C3H/hej mice; details: mice, i.v., 2-60 min
Method: The stability of novel compound [^18F]11 and known compound [^125I]14 in plasma and liver was measured over time following administration in mice. [^18F]11 was injected intravenously into tumor-bearing mice and its tissue distribution was measured in selected tissues at 2, 15 and 60 min after injection. [^125I]14 was injected intravenously into non-tumour bearing mice and its tissue distribution was measured at selected time points from 2 to 60 minutes after injection. Furthermore, the in vivo metabolic stability of the radiotracer was determined from plasma and liver samples and, for [^18F]11, in urine samples.
The radiation-induced murine fibrosarcoma (RIF-1) tumour cells^20 were maintained in RPMI 1640 medium (Invitrogen Ltd, Paisley, UK) supplemented with 10% fetal calf serum (BioWhittaker Europe Ltd, Verviers, Belgium), 2 mM L-glutamine, 100 U/mL penicillin, 100 μg/mL streptomycin and 0.25 μg/mL fungizone (Gibco, UK) at 37° C. in a humidified incubator with 5% CO2. All animal work was done by licensed investigators in accordance with the United Kingdom's “Guidance on the Operation of Animals (Scientific Procedures) Act 1986” (HMSO, London, United Kingdom, 1990) and in full compliance with government regulations and guidelines on the welfare of animals in experimental neoplasia^21. Tumors were established in mice by subcutaneous injection of 5×10^5 cells on the back of male C3H/hej mice (Harlan, Bicester, Oxfordshire, UK). Tumour growth was monitored every two days using electronic callipers, and tumor volume estimated using the equation (π/6)×L×W×D (L=length, W=width and D=depth). Animals were selected for biodistribution studies of [^18F]11 when the tumors reached ˜100-150 mm^3; biodistribution of [^125I]14 was done in non-tumor-bearing mice.
Mice were injected intravenously via the lateral vein with 0.08-0.13 mL of radioactivity (˜0.37 MBq of [^125I]14 or 3.7 MBq of [^18F]11) dissolved in phosphate buffered saline. At selected times after injection (2-60 min) mice were sacrificed by exsanguination via cardiac puncture under general anesthesia (isofluorane inhalation). Aliquots of heparinised blood were rapidly centrifuged (2000 g for 5 minutes) to obtain plasma. The radioactivity contained in tissues was determined by gamma-counting on a Cobra II Auto-Gamma counter (Packard Instruments, Meriden, Conn., USA) and expressed as a percentage of injected dose per gram of tissue (% ID/g). A minimum of three mice was used for each time point. All animals were treatment-naïve.

[2] = In vivo metabolism studies, radio-HPLC of plasma, liver and urine; set-up: species or system C3H/hej mice
Method: [^18F]11 was injected intravenously into tumor-bearing mice and its tissue distribution was measured in selected tissues at 2, 15 and 60 min after injection. […] Furthermore, the in vivo metabolic stability of the radiotracer was determined from plasma and liver samples and, for [^18F]11, in urine samples.
In vivo metabolism studies were also performed in C3H/hej mice. […] Plasma, liver and urine samples were snap-frozen in liquid nitrogen and kept in pre-weighed scintillation counting tubes on dry ice prior to analysis.
Immediately prior to extraction the samples were thawed and placed on ice. For extraction, ice cold acetonitrile (1.5 mL) was added to plasma (0.2 mL); S9 incubation samples (3 mL) containing acetonitrile were also analysed. Each mixture was centrifuged (15493×g, 4° C., 3 min) and the resulting supernatant was evaporated to dryness under vacuum at 40° C. using a rotary evaporator. Liver samples were homogenized with ice cold acetonitrile (1.5 mL) using an IKA Ultra-Turrax T-25 homogeniser prior to centrifugation. The residues were then re-suspended in HPLC mobile phase (1.2 mL) and filtered through a Minisart hydrophilic syringe filter (0.2 μm) (Sartorius, Goettingen, Germany). Urine samples were diluted with HPLC mobile phase, filtered as above. The samples (1 mL) were then analyzed by radio-HPLC on an Agilent 1100 series HPLC system (Agilent Technologies, Stockport, UK) equipped with a γ-RAM Model 3 gamma-detector and the Laura software (IN/US Systems inc., Florida, USA).
The stationary phase comprised of a Waters μBondapak C18 reverse-phase column (300×7.8 mm). […] Furthermore, to assess the fraction of [^18F]9-derived radioactivity associated with the plasma and liver pellets after extraction versus that remaining in the HPLC injectate, the total volume of HPLC injectate was recorded and an aliquot (0.1 mL) removed for counting. The radioactivity in the 0.1 mL aliquot and the pellet were then analyzed by gamma counting (Packard Instruments).

38C13 lymphoma cells = assay: Binding in 38C13 lymphoma cells undergoing treatment-induced apoptosis; type: cell-based, murine; details: 38C13 cells, 4-HC 1 μg/mL 24 h
Method: (left panel). Chemical structure and [^18F]11 binding in 38C13 lymphoma cells treated with 4-hydroperoxycyclophosphamide 4-HC (4-HC; 1 μg/mL; 24 h) to induce apoptosis. For all treated and control samples, radioactivity data were expressed as decay-corrected counts per milligram of total cellular protein. (right panel) The effect of 4-HC on the binding of the low affinity probe, [^18F]42, in 38C13 lymphoma cells. Data are mean±s.e.m.
A further aspect of the project has involved analysis of the weak isatin caspase-3 inhibitor N-[1-(2-Fluoroethyl)-1H-[1,2,3]-triazol-4-yl]isatin (compound 42). […] However, [^18F]42 lacks the pyrrolidine sulphonamide functionality that confers high affinity and selectivity for caspase-3. [^18F]42 was investigated in cell uptake assays for direct comparison with [^18F]11. The purpose of this was to examine the uptake profiles of the compounds in an effort to determine if uptake was the result of increased cell permeability, a characteristic trait of apoptotic cells, or the result of caspase-3 binding. Unlike [^18F]11, there was no increase in [^18F]42 binding following drug treatment (see FIG. 26), supporting the notion that [^18F]11 binding is due to caspase 3 activation.

T1 sequence (Q14790 217-374 limits assumed): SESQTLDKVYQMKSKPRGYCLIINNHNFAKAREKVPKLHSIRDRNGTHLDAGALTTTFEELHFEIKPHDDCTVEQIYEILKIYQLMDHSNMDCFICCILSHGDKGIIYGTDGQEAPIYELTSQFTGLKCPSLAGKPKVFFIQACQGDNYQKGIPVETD
T1 sequence (Q14790 385-479 limits assumed): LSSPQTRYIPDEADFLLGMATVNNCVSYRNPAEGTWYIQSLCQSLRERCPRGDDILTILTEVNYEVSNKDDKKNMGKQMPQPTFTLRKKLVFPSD

## O=C1C(=O)N(Cc2ccc(F)cc2)c2ccc(S(=O)(=O)N3CCC[C@H]3COc3cc(F)cc(F)c3)cc21 [Compound 3, (S)-1-(4-Fluorobenzyl)-5-(2-(3,5-difluorophenoxymethyl)-pyrrolidine-1-sulfonyl)isatin]
Caspase 8
  EC50: > 5000 nM
Caspase 6
  EC50: > 5000 nM
Caspase 7
  EC50: 16.8 nM
Caspase 1
  EC50: > 5000 nM

## O=C1C(=O)N(Cc2ccc(I)cc2)c2ccc(S(=O)(=O)N3CCC[C@H]3COc3ccccc3)cc21 [[^125I]14, (S)-1-(4-iodobenzyl)-5-(2-phenoxymethyl-pyrrolidine-1-sulfonyl)isatin, reference compound]
[1]
  tissue distribution and elimination: distributed rapidly to the major organs and was also rapidly eliminated
[2]; 10 min after injection, n=3
  parent as share of the radioactivity detected in the liver: < 15%
[2]; mice, after injection
  time until parent fully metabolized in the liver: ≤ 30 min
[2]; mice, i.v.
  time to complete elimination of parent from plasma: ≤ 10 min

## O=C1C(=O)N(c2cn(CCF)nn2)c2ccccc21 [[^18F]42, N-[1-(2-Fluoroethyl)-1H-[1,2,3]-triazol-4-yl]isatin]
38C13 lymphoma cells
  binding following drug treatment: no increase
